# Data published in patent US20100267561A1, “HERBICIDAL PYRIDAZINONE DERIVATIVES” (priority 2007, published 2010).
# How the values were obtained:
# Experiment in all cases: Test F mixtures with safener cloquintocet-mexyl, pre-/postemergence plant response
# Assay type in all cases: in vivo
# Conditions in all cases: applied alone
# [1] = test system: winter wheat (TRZAW, Triticum aestivum)
# Excerpt: (§1) This test evaluated the effect of mixtures of Compound 3, Compound 11, or Compound 12 with the commercial crop safener cloquintocet-mexyl on three plant species. Seeds of test plants consisting of winter wheat (TRZAW, Triticum aestivum), winter barley (HORVX, Hordeum vulgare), and wild oat (AVEFA, Avena fatua) (a weed) were planted into a blend of loam soil and sand and treated preemergence with a directed soil spray using test chemicals formulated in a non-phytotoxic solvent mixture that included a surfactant. At the same time, plants selected from these crop and weed species were treated with postemergence applications of the test chemicals formulated in the same manner. Plants ranged in height from 2 to 18 cm (1- to 4-leaf stage) for postemergence treatments.
# (§2) Plants were grown in a greenhouse using supplemental lighting to maintain a photoperiod of about 16 hours; daytime and nighttime temperatures were about 24-30° C. and 19-21° C., respectively. Balanced fertilizer was applied through the watering system. Treatments consisted of Compound 3, Compound 11, or Compound 12 and the above mentioned safener alone and in combination using a spray volume of 457 L/ha. Each treatment was replicated three times. Treated plants and controls were maintained in a greenhouse for 14 to 21 days, after which time all treated plants were compared to controls and visually evaluated. Plant response ratings were calculated as the means of the three replicates and are summarized in Tables F1 to F6, and are based on a scale of 0 to 100 where 0 is no effect and 100 is complete control. Because cloquintocet-mexyl alone caused no injury at the rates tested, the expected effect of a mixture of Compound 3 with cloquintocet-mexyl is the same as the observed effect of Compound 3 applied alone.
# [2] = test system: wild oat (AVEFA, Avena fatua)
# Excerpt: as §1, §2
# [3] = test system: winter barley (HORVX, Hordeum vulgare)
# Excerpt: as §1, §2
smiles,measurement,setting,value
CCc1cc(-c2ccc(C(F)(F)F)cc2)nn1-c1c(OC(=O)OC(C)C)cnn(C)c1=O [Compound 12],"TRZAW Obsd. (observed effect) plant response rating, scale 0 to 100","[1]; postemergence, 4 g a.i./ha",0
same,"TRZAW Obsd. (observed effect) plant response rating, scale 0 to 100","[1]; postemergence, 8 g a.i./ha",18
same,"TRZAW Obsd. (observed effect) plant response rating, scale 0 to 100","[1]; postemergence, 16 g a.i./ha",77
same,"TRZAW Obsd. (observed effect) plant response rating, scale 0 to 100","[1]; preemergence, 4 g a.i./ha",0
same,"TRZAW Obsd. (observed effect) plant response rating, scale 0 to 100","[1]; preemergence, 8 g a.i./ha",75
same,"TRZAW Obsd. (observed effect) plant response rating, scale 0 to 100","[1]; preemergence, 16 g a.i./ha",97
same,"AVEFA Obsd. (observed effect) plant response rating, scale 0 to 100","[2]; postemergence, 4 g a.i./ha",13
same,"AVEFA Obsd. (observed effect) plant response rating, scale 0 to 100","[2]; postemergence, 8 g a.i./ha",98
same,"AVEFA Obsd. (observed effect) plant response rating, scale 0 to 100","[2]; postemergence, 16 g a.i./ha",100
same,"AVEFA Obsd. (observed effect) plant response rating, scale 0 to 100","[2]; preemergence, 4 g a.i./ha",7
same,"AVEFA Obsd. (observed effect) plant response rating, scale 0 to 100","[2]; preemergence, 8 g a.i./ha",92
same,"AVEFA Obsd. (observed effect) plant response rating, scale 0 to 100","[2]; preemergence, 16 g a.i./ha",96
same,"HORVX Obsd. (observed effect) plant response rating, scale 0 to 100","[3]; postemergence, 4 g a.i./ha",0
same,"HORVX Obsd. (observed effect) plant response rating, scale 0 to 100","[3]; postemergence, 8 g a.i./ha",32
same,"HORVX Obsd. (observed effect) plant response rating, scale 0 to 100","[3]; postemergence, 16 g a.i./ha",65
same,"HORVX Obsd. (observed effect) plant response rating, scale 0 to 100","[3]; preemergence, 4 g a.i./ha",10
same,"HORVX Obsd. (observed effect) plant response rating, scale 0 to 100","[3]; preemergence, 8 g a.i./ha",73
same,"HORVX Obsd. (observed effect) plant response rating, scale 0 to 100","[3]; preemergence, 16 g a.i./ha",80
